Patent US20140004075A1, “PHEROMONE COMPOSITION” (The New Zealand Institute for Plant and Food Research …, priority 2010, published 2014)

Tested on: Epiphyas postvittana
Assay: Large Vineyard Trial 2 (disruption of catch to four component lures)
Format: in vivo
Settings: added at 4:1 ratio E11-14:Ac to Z11-14:Ac (Blends 4, 5)
Procedure: All compounds used as authentic standards in the chromatographic analysis or in the field trapping experiments were >97% pure by GC analysis and stored at −80° C. until used. Samples of E11-14:Ac, E9E11-14:Ac, E11-14:OH and E11-16:Ac were purchased from Plant Research International, Wageningen, The Netherlands. All blends of synthetic compounds were applied to the large “well” of red rubber septa (West Pharmaceutical Services, Kearney, N.E., USA) in 200 μl of n-hexane GR (Merck Ltd, New Zealand). The solvent was allowed to evaporate in a fume hood and the septa were stored in heat-sealed foil bags at −20° C. until ready for use. For traps used in assessing disruption, lures contained the four component lure at 1 mg loading with the blends shown in Table 1. […]
Traps were maintained weekly as a short central row transect in each case, with 3 traps containing the four component lure. […] For both trials, the number of moths in the traps was recorded each week. […]
For both Large Vineyard Trials 1 and 2, counts for each date were analysed. In addition, the total pre-treatment and post-treatment counts were analysed. […] Random effects assessed were blocks (replicates), plots within blocks, and spatial position (rows and column as in the Trial plans). In addition to the treatments, for the post-treatment counts, a co-variate for the trap counts in the last pre-treatment week was assessed as a fixed effect. […]

SMILES: CC/C=C\CCCCCCCCCCOC(C)=O [Z11-14:Ac, (Z)-11-tetradecenyl acetate]
- effect of the inhibitor on disruption: antagonistic to disruption
